According to patent US8628770B2, “Slimming cosmetic composition containing a substance inducing the production of IL-6” (Sanofi, priority 1999, dated 2014):

Test system: mature adipocytes 3T3-L1
Assay: Production of IL-6 by the mature adipocytes 3T3-L1 (ELISA)
Type: cell-based, murine
Settings: reference IL-6 inducer at 50 ng/ml
Source text: The biological effects of substance C in vitro has been studied on the murine line 3T3-L1. This preadipocyte line, routinely cultured in DMEM medium ([…]) enriched with 10% foetal calf serum has the property of differentiating into mature adipocytes in the presence of inducers such as insulin and indomethacin (Slieker L. J. Biochem. Biophys. Res. Com. 1998, 251, 225-229). […] This passage from the stage of immature cell to the stage of functional adipocyte can be morphologically assessed by the appearance of intracytoplasmic lipid storage vesicles which are visible under the microscope or which can be biochemically detected by measuring the production of leptin, the hormone for satiety produced solely by mature adipocytes.
The influence of substance C on the adipocyte activity was evaluated at two levels. […]
Mature adipocytes 3T3-L1 (harvested after 10 days of differentiation induced by the insulin (5 μg/ml) and indomethacin (125 μm) combination) are stimulated with substance C at 1% (v/v) for 24 hours. The culture supernatant is then removed and its IL-6 content measured by ELISA (Enzyme Linked Immunosorbent Assay) according to the supplier's instructions (R&D Systems, Abingdon, GB). […]

TNF-α
IL-6 content of culture supernatant: 52 pg/mL
